Source: patent publication EP0072121A1, “Beta-lactam antibiotics” (BEECHAM GROUP PLC, priority 1981, dated 1983)
≈ marks a conversion by molar mass, not a printed value.

Experiments:
Experiment in all cases: standard MIC test
Format in all cases: cell-based
[1] = system: Bacillus subtilis A
From the text: (§1) In a standard MIC test the compound of Examples 1 and 2 afforded the following data (µg/ml).

[2] = system: Citrobacter freundii E8
From the text: as §1

[3] = system: Enterobacter cloacae N1 [T753]
From the text: as §1

[4] = system: Escherichia coli ESS
From the text: as §1

[5] = system: Escherichia coli JT20
From the text: as §1

[6] = system: Escherichia coli JT39 [E96]
From the text: as §1

[7] = system: Escherichia coli JT410
From the text: as §1

[8] = system: Escherichia coli O111 [E8]
From the text: as §1

[9] = system: Klebsiella aerogenes A [T767]
From the text: as §1

[10] = system: Klebsiella aerogenes Ba95
From the text: as §1

[11] = system: Proteus mirabilis 977 [13]
From the text: as §1

[12] = system: Proteus morganii 1580; conditions: Morganella morganii
From the text: as §1

[13] = system: Proteus rettgeri WM16; conditions: Providencia rettgeri
From the text: as §1

[14] = system: Proteus vulgaris W091
From the text: as §1

[15] = system: Pseudomonas Dalgleish
From the text: as §1

[16] = system: Pseudomonas aeruginosa A [11]
From the text: as §1

[17] = system: Salmonella typhimurium CT10; conditions: Salmonella enterica
From the text: as §1

[18] = system: Shigella sonnei MB11967
From the text: as §1

[19] = system: Staphylococcus aureus 1517
From the text: as §1

[20] = system: Staphylococcus aureus Oxford
From the text: as §1

[21] = system: Staphylococcus aureus Russell MB9
From the text: as §1

[22] = system: Streptococcus pneumoniae CN33
From the text: as §1

[23] = system: Streptocuccus faecalis I
From the text: as §1

[24] = system: Streptocuccus pyogenes CN10
From the text: as §1

SMILES | MIC [1] [µg/mL] | MIC [2] [µg/mL] | MIC [3] [µg/mL] | MIC [4] [µg/mL] | MIC [5] [µg/mL] | MIC [6] [µg/mL] | MIC [7] [µg/mL] | MIC [8] [µg/mL] | MIC [9] [µg/mL] | MIC [10] [µg/mL] | MIC [11] [µg/mL] | MIC [12] [µg/mL] | MIC [13] [µg/mL] | MIC [14] [µg/mL] | MIC [15] [µg/mL] | MIC [16] [µg/mL] | MIC [17] [µg/mL] | MIC [18] [µg/mL] | MIC [19] [µg/mL] | MIC [20] [µg/mL] | further results
CC(=N)NCCOC(=O)/C=C\SC1=C(C(=O)O)N2C(=O)[C@@H]([C@H](C)O)[C@H]2C1 [Ex.1, (5R,6R)-3-[(Z)-2-Acetimidoylaminoethyloxycarbonyl-ethenylthio]-6-[(S)-1-hydroxyethyl]-7-oxo-1-azabicyclo[3.2.0]hept-2-ene-2-carboxylic acid] | ≤ 0.1 | 0.4 (≈ 1.04 µM) | 3.1 (≈ 8.09 µM) | ≤ 0.1 | 3.1 (≈ 8.09 µM) | 0.2 (≈ 0.522 µM) | 0.2 (≈ 0.522 µM) | 0.2 (≈ 0.522 µM) | 0.2 (≈ 0.522 µM) | 3.1 (≈ 8.09 µM) | 0.4 (≈ 1.04 µM) | 1.6 (≈ 4.17 µM) | 1.6 (≈ 4.17 µM) | 3.1 (≈ 8.09 µM) | 25 (≈ 65.2 µM) | 25 (≈ 65.2 µM) | 0.2 (≈ 0.522 µM) | 0.2 (≈ 0.522 µM) | 0.8 (≈ 2.09 µM) | ≤ 0.1 | MIC [21]: ≤ 0.1 µg/mL; MIC [22]: ≤ 0.1 µg/mL; MIC [23]: ≤ 0.1 µg/mL; MIC [24]: ≤ 0.1 µg/mL
CC(=N)NCCOC(=O)/C=C\SC1=C(C(=O)O)N2C(=O)[C@H]([C@@H](C)O)[C@H]2C1 [Ex.2, (5R,6S)-3-[(S)-2-Acetimidoylaminoethyloxycarbonyl-ethenylthio]-6-[(R)-1-hydroxyethyl]-7-oxo-1-azabicyclo [3.2.0]hept-2-ene-2-carboxylic acid] | < 0.1 | 0.4 (≈ 1.04 µM) | 0.8 (≈ 2.09 µM) | 0.2 (≈ 0.522 µM) | 0.2 (≈ 0.522 µM) | 0.2 (≈ 0.522 µM) | 0.2 (≈ 0.522 µM) | 0.2 (≈ 0.522 µM) | 0.2 (≈ 0.522 µM) | 0.4 (≈ 1.04 µM) | 0.8 (≈ 2.09 µM) | 1.6 (≈ 4.17 µM) | 0.8 (≈ 2.09 µM) | 0.8 (≈ 2.09 µM) | 25 (≈ 65.2 µM) | 25 (≈ 65.2 µM) | 0.2 (≈ 0.522 µM) | 0.2 (≈ 0.522 µM) | 1.6 (≈ 4.17 µM) | ≤ 0.1 | MIC [21]: ≤ 0.1 µg/mL; MIC [23]: 0.2 µg/mL (≈ 0.522 µM)
